Values after ≈ are worked out from the molar mass of the structure shown.
Test system: not listed separately
Assay: in vivo
Conditions: rat, plasma, po, 5 mg/kg

SMILES	half-life
Cc1c(N2C[C@@H](N)[C@@H](C)C2)c(F)cn2c(=O)c(C(=O)O)cc(C3CC3)c12	2.1 h
Cc1c(N2C[C@@H](N)C[C@@H]2C)c(F)cn2c(=O)c(C(=O)O)cc(C3CC3)c12	1.6 h

Biological target: T1, DNA gyrase (Staphylococcus aureus) (UniProt P0A0K8+P20831)
Assay: In vitro antibacterial activity against gram-positive organism Staphylococcus aureus NCTC-10649M
Assay type: functional
Conditions: not given

T1 sequence (P0A0K8 2-644 limits assumed): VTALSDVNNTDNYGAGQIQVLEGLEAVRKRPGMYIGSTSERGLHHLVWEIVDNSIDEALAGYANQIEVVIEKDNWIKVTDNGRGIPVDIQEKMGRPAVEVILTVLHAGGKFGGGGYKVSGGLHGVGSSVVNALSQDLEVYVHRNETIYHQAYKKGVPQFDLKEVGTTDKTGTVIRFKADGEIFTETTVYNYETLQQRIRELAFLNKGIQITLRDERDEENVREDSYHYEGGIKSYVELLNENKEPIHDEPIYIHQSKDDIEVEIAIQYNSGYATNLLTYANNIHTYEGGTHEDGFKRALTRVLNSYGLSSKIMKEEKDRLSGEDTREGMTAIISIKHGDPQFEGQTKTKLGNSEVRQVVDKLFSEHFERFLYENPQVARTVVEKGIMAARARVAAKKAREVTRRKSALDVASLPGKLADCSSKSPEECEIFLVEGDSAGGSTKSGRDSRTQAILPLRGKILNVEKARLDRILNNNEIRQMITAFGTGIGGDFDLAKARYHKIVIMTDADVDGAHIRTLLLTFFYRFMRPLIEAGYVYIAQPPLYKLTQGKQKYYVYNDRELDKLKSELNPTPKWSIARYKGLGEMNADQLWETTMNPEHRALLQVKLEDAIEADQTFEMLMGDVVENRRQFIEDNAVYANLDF
T1 sequence (P20831 whole entry partner): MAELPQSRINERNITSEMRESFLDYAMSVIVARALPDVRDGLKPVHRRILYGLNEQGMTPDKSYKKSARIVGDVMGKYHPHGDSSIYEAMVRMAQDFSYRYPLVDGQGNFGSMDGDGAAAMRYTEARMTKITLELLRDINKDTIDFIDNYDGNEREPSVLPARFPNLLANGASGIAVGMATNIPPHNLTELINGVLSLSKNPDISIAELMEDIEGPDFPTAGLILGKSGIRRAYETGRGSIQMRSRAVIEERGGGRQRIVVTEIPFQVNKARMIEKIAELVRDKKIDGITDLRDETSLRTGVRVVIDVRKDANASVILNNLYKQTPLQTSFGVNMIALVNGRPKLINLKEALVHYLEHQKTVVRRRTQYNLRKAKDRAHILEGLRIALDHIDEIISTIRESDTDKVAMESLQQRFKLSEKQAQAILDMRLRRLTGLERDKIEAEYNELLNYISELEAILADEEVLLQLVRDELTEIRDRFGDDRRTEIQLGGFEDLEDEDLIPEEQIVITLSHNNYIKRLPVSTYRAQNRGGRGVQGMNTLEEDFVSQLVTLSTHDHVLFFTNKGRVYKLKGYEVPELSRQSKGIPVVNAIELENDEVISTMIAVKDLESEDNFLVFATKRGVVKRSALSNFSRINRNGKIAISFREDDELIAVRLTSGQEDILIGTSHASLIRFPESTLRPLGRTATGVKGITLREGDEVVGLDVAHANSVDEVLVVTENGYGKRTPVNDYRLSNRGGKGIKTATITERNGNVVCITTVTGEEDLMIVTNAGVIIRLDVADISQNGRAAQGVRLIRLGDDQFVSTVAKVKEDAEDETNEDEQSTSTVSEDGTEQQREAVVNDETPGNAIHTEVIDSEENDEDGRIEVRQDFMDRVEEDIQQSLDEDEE

SMILES	MIC
Cc1c(N2C[C@@H](N)[C@@H](C)C2)c(F)cn2c(=O)c(C(=O)O)cc(C3CC3)c12	0.02 µg/mL (≈ 0.0556 µM)
Cc1c(N2C[C@@H](N)C[C@@H]2C)c(F)cn2c(=O)c(C(=O)O)cc(C3CC3)c12	0.01 µg/mL (≈ 0.0278 µM)

Biological target: T2, DNA gyrase (Escherichia coli) (UniProt P0AES6+P0AES4)
Assay: In vitro antibacterial activity against gram-negative organism Prov. stuartii CMX-640
Assay type: functional
Conditions: Providencia stuartii

SMILES	MIC
Cc1c(N2C[C@@H](N)[C@@H](C)C2)c(F)cn2c(=O)c(C(=O)O)cc(C3CC3)c12	0.78 µg/mL (≈ 2.17 µM)
Cc1c(N2C[C@@H](N)C[C@@H]2C)c(F)cn2c(=O)c(C(=O)O)cc(C3CC3)c12	0.78 µg/mL (≈ 2.17 µM)

Test system: not listed separately
Assay: in vivo
Conditions: rat, po, 5 mg/kg
Description: Oral bioavailability in rat (dose 5 mg/kg)

SMILES	bioavailability
Cc1c(N2C[C@@H](N)[C@@H](C)C2)c(F)cn2c(=O)c(C(=O)O)cc(C3CC3)c12	23%
Cc1c(N2C[C@@H](N)C[C@@H]2C)c(F)cn2c(=O)c(C(=O)O)cc(C3CC3)c12	44%

Test system: Streptococcus pyogenes
Assay: In vitro antibacterial activity against gram-positive organism Streptococcus pyogenes EES61
Assay type: functional
Conditions: Streptococcus pyogenes; read-out: MIC

SMILES	MIC
Cc1c(N2C[C@@H](N)[C@@H](C)C2)c(F)cn2c(=O)c(C(=O)O)cc(C3CC3)c12	0.05 µg/mL (≈ 0.139 µM)
Cc1c(N2C[C@@H](N)C[C@@H]2C)c(F)cn2c(=O)c(C(=O)O)cc(C3CC3)c12	0.05 µg/mL (≈ 0.139 µM)

Test system: not listed separately
Assay: In vitro antibacterial activity against gram-negative organism Pseudomonas aeruginosa 5007
Assay type: functional
Conditions: Pseudomonas aeruginosa; read-out: MIC

SMILES	MIC
Cc1c(N2C[C@@H](N)[C@@H](C)C2)c(F)cn2c(=O)c(C(=O)O)cc(C3CC3)c12	0.1 µg/mL (≈ 0.278 µM)
Cc1c(N2C[C@@H](N)C[C@@H]2C)c(F)cn2c(=O)c(C(=O)O)cc(C3CC3)c12	0.2 µg/mL (≈ 0.556 µM)

Test system: not listed separately
Assay: In vitro antibacterial activity against gram-negative organism Pseudomonas aeruginosa DPHD-2862
Assay type: functional
Conditions: Pseudomonas aeruginosa; read-out: MIC

SMILES	MIC
Cc1c(N2C[C@@H](N)[C@@H](C)C2)c(F)cn2c(=O)c(C(=O)O)cc(C3CC3)c12	1.56 µg/mL (≈ 4.34 µM)
Cc1c(N2C[C@@H](N)C[C@@H]2C)c(F)cn2c(=O)c(C(=O)O)cc(C3CC3)c12	3.1 µg/mL (≈ 8.63 µM)

Biological target: T2, DNA gyrase (Escherichia coli)
Assay: In vitro antibacterial activity against gram-positive organism Enterococcus faecium ATCC 8043
Assay type: functional
Conditions: not given

SMILES	MIC
Cc1c(N2C[C@@H](N)[C@@H](C)C2)c(F)cn2c(=O)c(C(=O)O)cc(C3CC3)c12	0.05 µg/mL (≈ 0.139 µM)
Cc1c(N2C[C@@H](N)C[C@@H]2C)c(F)cn2c(=O)c(C(=O)O)cc(C3CC3)c12	0.1 µg/mL (≈ 0.278 µM)

Test system: not listed separately
Assay: physchem
Conditions: phosphate buffer, pH 7.4
Description: Aqueous solubility in pH 7.4 phosphate buffer (0.05 M) at 37 degree C

SMILES	solubility
Cc1c(N2C[C@@H](N)C[C@@H]2C)c(F)cn2c(=O)c(C(=O)O)cc(C3CC3)c12	70 µg/mL (≈ 195 µM)

Biological target: T2, DNA gyrase (Escherichia coli)
Assay: In vitro antibacterial against gram-negative organism Escherichia coli JUHL
Assay type: functional
Conditions: Escherichia coli K-12

SMILES	MIC
Cc1c(N2C[C@@H](N)[C@@H](C)C2)c(F)cn2c(=O)c(C(=O)O)cc(C3CC3)c12	0.005 µg/mL (≈ 0.0139 µM)
Cc1c(N2C[C@@H](N)C[C@@H]2C)c(F)cn2c(=O)c(C(=O)O)cc(C3CC3)c12	0.005 µg/mL (≈ 0.0139 µM)

Test system: not listed separately
Assay: Maximum plasma concentration in rats after an oral dose of 5 mg/kg
Conditions: rat

SMILES	Cmax
Cc1c(N2C[C@@H](N)[C@@H](C)C2)c(F)cn2c(=O)c(C(=O)O)cc(C3CC3)c12	170 ng/mL
Cc1c(N2C[C@@H](N)C[C@@H]2C)c(F)cn2c(=O)c(C(=O)O)cc(C3CC3)c12	740 ng/mL

Biological target: T2, DNA gyrase (Escherichia coli)
Assay: not given
Conditions: Escherichia coli K-12

SMILES	CC50
Cc1c(N2C[C@@H](N)[C@@H](C)C2)c(F)cn2c(=O)c(C(=O)O)cc(C3CC3)c12	0.06 µg/mL (≈ 0.167 µM)
Cc1c(N2C[C@@H](N)C[C@@H]2C)c(F)cn2c(=O)c(C(=O)O)cc(C3CC3)c12	0.2 µg/mL (≈ 0.556 µM)

Biological target: T1, DNA gyrase (Staphylococcus aureus)
Assay: In vitro antibacterial activity against gram-positive organism Staphylococcus aureus 1775
Assay type: functional
Conditions: not given

SMILES	MIC
Cc1c(N2C[C@@H](N)[C@@H](C)C2)c(F)cn2c(=O)c(C(=O)O)cc(C3CC3)c12	0.78 µg/mL (≈ 2.17 µM)
Cc1c(N2C[C@@H](N)C[C@@H]2C)c(F)cn2c(=O)c(C(=O)O)cc(C3CC3)c12	1.56 µg/mL (≈ 4.34 µM)

Biological target: T1, DNA gyrase (Staphylococcus aureus)
Assay: In vitro antibacterial activity against gram-positive organism Staphylococcus aureus ATCC 6538p
Assay type: functional
Conditions: not given

SMILES	MIC
Cc1c(N2C[C@@H](N)[C@@H](C)C2)c(F)cn2c(=O)c(C(=O)O)cc(C3CC3)c12	0.02 µg/mL (≈ 0.0556 µM)
Cc1c(N2C[C@@H](N)C[C@@H]2C)c(F)cn2c(=O)c(C(=O)O)cc(C3CC3)c12	0.01 µg/mL (≈ 0.0278 µM)

Biological target: T2, DNA gyrase (Escherichia coli)
Assay: In vitro antibacterial activity against gram-negative organism […] ATCC 13048
Assay type: functional
Conditions: Enterobacter aerogenes

SMILES	MIC
Cc1c(N2C[C@@H](N)[C@@H](C)C2)c(F)cn2c(=O)c(C(=O)O)cc(C3CC3)c12	0.02 µg/mL (≈ 0.0556 µM)
Cc1c(N2C[C@@H](N)C[C@@H]2C)c(F)cn2c(=O)c(C(=O)O)cc(C3CC3)c12	0.05 µg/mL (≈ 0.139 µM)

Biological target: T2, DNA gyrase (Escherichia coli)
Assay: In vitro antibacterial activity against gram-positive organism Streptococcus bovis A-5169
Assay type: functional
Conditions: Streptococcus equinus

SMILES	MIC
Cc1c(N2C[C@@H](N)[C@@H](C)C2)c(F)cn2c(=O)c(C(=O)O)cc(C3CC3)c12	0.02 µg/mL (≈ 0.0556 µM)
Cc1c(N2C[C@@H](N)C[C@@H]2C)c(F)cn2c(=O)c(C(=O)O)cc(C3CC3)c12	0.05 µg/mL (≈ 0.139 µM)

Biological target: T2, DNA gyrase (Escherichia coli)
Assay: In vitro antibacterial activity against gram-negative organism Klebsiella pneumoniae ATCC 8045
Assay type: functional
Conditions: not given

SMILES	MIC
Cc1c(N2C[C@@H](N)[C@@H](C)C2)c(F)cn2c(=O)c(C(=O)O)cc(C3CC3)c12	0.005 µg/mL (≈ 0.0139 µM)
Cc1c(N2C[C@@H](N)C[C@@H]2C)c(F)cn2c(=O)c(C(=O)O)cc(C3CC3)c12	0.01 µg/mL (≈ 0.0278 µM)

Reference: ChEMBL document CHEMBL1129258, “Synthesis and structure-activity relationships of 2-pyridones: a novel series of potent DNA gyrase inhibitors as antibacterial agents” (J Med Chem, 1996)
